From patent US8642766B2, “Synthesis of (+) cortistatin A and related compounds” (priority 2008, dated 2014)

Columns and labels:
HUVECs = test: Assay to determine activity against HUVECs (carried out by Pfizer, Inc.); assay type: cell-based, human; conditions: for IC50: synthetic material, tested by Pfizer, Inc.
Excerpt: [Aoki et al., J. Am. Chem. Soc. 2006, 128:3148-3149]

[1] = tested on: human umbilical vein endothelial cells (HUVECs); conditions: cited from earlier work

SMILES: CN(C)[C@H]1C[C@@]23CC[C@@]4(O2)C(=CC[C@]2(C)[C@@H](c5ccc6ccncc6c5)CC[C@H]24)C=C3[C@@H](O)[C@@H]1O [17-epi-cortistatin A]
- IC50 (HUVECs): > 1000 nM

SMILES: CN(C)[C@H]1C[C@@]23CC[C@@]4(O2)C(=CC[C@]2(C)[C@@H](c5ccc6ccncc6c5)CC[C@H]24)C=C3[C@@H](O)[C@@H]1O [cortistatin A, (+)-cortistatin A]
- IC50 (HUVECs; Homo sapiens, HUVEC): 2.43 nM
- IC50 ([1]; natural cortistatin A tested by Kobayashi group, Aoki et al., J. Am. Chem. Soc. 2006, read-out: IC50 against HUVECs, natural cortistatin A): 1.8 nM
- IC50 (testing cells)/IC50 (HUVECs) ([1]; selectivity versus healthy or cancerous cell lines, Aoki et al. 2006): ≥ 3300

SMILES: CN(C)[C@H]1C[C@@]23CC[C@@]4(O2)C(=CC[C@]2(C)C(c5ccc6ccncc6c5)=CC[C@H]24)C=C3[C@@H](O)[C@@H]1O [Δ^16-cortistatin A]
- IC50 (HUVECs; Homo sapiens, HUVEC): 3.88 nM
- biological activity compared with (+)cortistatin A (HUVECs; statement in words, refers to the HUVEC results discussed below it): substantially the same as that of (+)cortistatin A
